The values that follow come from patent US20090221603A1, “HETEROCYCLIC AMIDE DERIVATIVES AS CALCIUM CHANNEL BLOCKERS” (priority 2005, published 2009).

Read-outs that look alike come from different tables or passages of the source.

For this assay, the target named is T1, rat brain N-type calcium channel subunits (α1B+α2δ+β1b cDNA subunits) (Rattus norvegicus, UniProt Q02294).
T1 construct: expressed in transfected cells; host or cells: HEK 293 (stably, alternatively transiently, transfected)
Nature of the assay: N-type calcium channel block, whole cell patch clamp in HEK 293 cells. The settings on record: holding potential −80 mV to +10 mV. The format is cell-based. The method, then:
A. Transformation of HEK Cells: • N-type calcium channel blocking activity was assayed in human embryonic kidney cells, HEK 293, stably transfected with the rat brain N-type calcium channel subunits (α1B+α2δ+β1b cDNA subunits). Alternatively, N-type calcium channels (α1B+α2δ+β1b cDNA subunits), L-type channels (α1C+α2δ+β1b cDNA subunits) and P/Q-type channels (α1A+α2δ+β1b cDNA subunits) were transiently expressed in HEK 293 cells. Briefly, cells were cultured in Dulbecco's modified eagle medium (DMEM) supplemented with 10% fetal bovine serum, 200 U/ml penicillin and 0.2 mg/ml streptomycin at 37° C. with 5% CO2. At 85% confluency cells were split with 0.25% trypsin/1 mM EDTA and plated at 10% confluency on glass coverslips. At 12 hours the medium was replaced and the cells transiently transfected using a standard calcium phosphate protocol and the appropriate calcium channel cDNA's. Fresh DMEM was supplied and the cells transferred to 28° C./5% CO2. Cells were incubated for 1 to 2 days prior to whole cell recording.
B. Measurement of Inhibition
Whole cell patch clamp experiments were performed using an Axopatch 200B amplifier (Axon Instruments, Burlingame, Calif.) linked to a personal computer equipped with pCLAMP software. The external and internal recording solutions contained, respectively, 5 mM BaCl2, 10 mM MgCl2, 10 mM HEPES, 40 mM TEACl, 10 mM glucose, 87.5 mM CsCl (pH 7.2) and 108 mM CsMS, 4 mM MgCl2, 9 mM EGTA, 9 mM HEPES (pH 7.2). Currents were typically elicited from a holding potential of −80 mV to +10 mV using Clampex software (Axon Instruments). Typically, currents were first elicited with low frequency stimulation (0.067 Hz) and allowed to stabilize prior to application of the compounds. The compounds were then applied during the low frequency pulse trains for two to three minutes to assess tonic block, and subsequently the pulse frequency was increased to 0.2 Hz to assess frequency dependent block. Data were analyzed using Clampfit (Axon Instruments) and SigmaPlot 4.0 (Jandel Scientific).
In general terms: Patch clamp records ionic current or voltage across a cell membrane.

[1] abbreviates: low frequency stimulation 0.067 Hz (tonic block), read-out: IC50 @ 0.067 Hz.
The mark [2] stands for this setting: pulse frequency 0.2 Hz (frequency dependent block), read-out: IC50 @ 0.2 Hz.

T1 sequence (Q02294 whole entry): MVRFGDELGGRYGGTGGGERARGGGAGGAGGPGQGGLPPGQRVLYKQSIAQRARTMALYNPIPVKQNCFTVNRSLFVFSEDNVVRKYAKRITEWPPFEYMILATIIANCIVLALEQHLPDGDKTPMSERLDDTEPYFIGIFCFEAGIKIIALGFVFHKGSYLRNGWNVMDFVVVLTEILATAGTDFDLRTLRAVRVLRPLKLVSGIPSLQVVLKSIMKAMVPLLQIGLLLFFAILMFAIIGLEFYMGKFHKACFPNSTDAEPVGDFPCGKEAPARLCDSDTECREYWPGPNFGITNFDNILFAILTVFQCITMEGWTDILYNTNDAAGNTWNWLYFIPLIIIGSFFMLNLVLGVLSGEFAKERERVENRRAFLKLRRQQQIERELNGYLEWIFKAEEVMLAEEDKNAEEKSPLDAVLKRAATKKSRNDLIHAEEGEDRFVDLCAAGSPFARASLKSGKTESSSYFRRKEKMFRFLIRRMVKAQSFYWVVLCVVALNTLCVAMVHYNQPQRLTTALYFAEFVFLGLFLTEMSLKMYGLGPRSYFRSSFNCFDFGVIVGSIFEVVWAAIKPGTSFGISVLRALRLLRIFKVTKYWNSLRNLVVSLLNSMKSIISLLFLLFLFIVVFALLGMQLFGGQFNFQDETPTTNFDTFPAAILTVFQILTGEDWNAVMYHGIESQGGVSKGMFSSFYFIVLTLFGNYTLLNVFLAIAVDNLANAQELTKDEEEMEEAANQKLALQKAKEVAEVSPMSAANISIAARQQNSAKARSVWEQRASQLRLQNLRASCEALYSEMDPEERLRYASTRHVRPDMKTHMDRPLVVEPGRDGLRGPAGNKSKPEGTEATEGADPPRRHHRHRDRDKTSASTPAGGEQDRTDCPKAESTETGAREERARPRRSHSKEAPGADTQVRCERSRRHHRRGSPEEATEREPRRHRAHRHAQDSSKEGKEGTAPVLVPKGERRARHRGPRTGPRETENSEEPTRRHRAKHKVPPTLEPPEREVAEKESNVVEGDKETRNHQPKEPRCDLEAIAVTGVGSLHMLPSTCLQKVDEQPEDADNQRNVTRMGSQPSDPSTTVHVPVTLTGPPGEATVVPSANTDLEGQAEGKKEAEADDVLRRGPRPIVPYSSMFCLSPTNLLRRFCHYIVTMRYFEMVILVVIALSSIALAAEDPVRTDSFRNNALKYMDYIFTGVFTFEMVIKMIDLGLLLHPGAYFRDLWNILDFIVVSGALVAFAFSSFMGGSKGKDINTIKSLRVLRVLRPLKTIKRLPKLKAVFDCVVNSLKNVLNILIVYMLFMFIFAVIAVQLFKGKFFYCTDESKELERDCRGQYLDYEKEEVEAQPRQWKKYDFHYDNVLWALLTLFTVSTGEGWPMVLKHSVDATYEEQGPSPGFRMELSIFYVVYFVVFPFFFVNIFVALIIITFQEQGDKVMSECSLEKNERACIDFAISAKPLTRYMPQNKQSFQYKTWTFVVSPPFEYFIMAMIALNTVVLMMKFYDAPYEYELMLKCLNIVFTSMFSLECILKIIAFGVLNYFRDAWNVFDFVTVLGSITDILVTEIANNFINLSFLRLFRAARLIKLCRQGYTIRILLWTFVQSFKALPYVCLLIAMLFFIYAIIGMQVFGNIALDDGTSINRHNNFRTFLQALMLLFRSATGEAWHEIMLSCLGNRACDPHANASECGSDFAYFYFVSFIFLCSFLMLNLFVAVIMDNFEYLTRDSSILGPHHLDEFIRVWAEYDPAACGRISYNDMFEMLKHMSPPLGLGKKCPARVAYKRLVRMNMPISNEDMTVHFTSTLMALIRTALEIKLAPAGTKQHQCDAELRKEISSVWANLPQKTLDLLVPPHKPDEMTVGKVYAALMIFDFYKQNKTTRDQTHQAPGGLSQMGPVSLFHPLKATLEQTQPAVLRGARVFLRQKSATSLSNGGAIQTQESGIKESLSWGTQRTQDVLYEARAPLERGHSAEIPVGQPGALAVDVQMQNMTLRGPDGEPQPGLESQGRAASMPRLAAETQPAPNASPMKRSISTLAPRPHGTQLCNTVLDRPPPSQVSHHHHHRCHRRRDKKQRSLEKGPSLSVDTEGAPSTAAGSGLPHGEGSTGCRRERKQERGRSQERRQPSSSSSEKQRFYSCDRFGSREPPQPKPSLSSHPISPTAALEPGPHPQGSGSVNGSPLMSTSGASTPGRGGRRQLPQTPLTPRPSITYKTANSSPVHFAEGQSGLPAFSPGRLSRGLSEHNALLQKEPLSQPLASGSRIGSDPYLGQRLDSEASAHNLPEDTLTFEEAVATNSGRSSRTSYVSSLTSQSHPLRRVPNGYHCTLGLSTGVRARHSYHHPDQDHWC
T1 sequence (P54290 25-944 partner limits assumed): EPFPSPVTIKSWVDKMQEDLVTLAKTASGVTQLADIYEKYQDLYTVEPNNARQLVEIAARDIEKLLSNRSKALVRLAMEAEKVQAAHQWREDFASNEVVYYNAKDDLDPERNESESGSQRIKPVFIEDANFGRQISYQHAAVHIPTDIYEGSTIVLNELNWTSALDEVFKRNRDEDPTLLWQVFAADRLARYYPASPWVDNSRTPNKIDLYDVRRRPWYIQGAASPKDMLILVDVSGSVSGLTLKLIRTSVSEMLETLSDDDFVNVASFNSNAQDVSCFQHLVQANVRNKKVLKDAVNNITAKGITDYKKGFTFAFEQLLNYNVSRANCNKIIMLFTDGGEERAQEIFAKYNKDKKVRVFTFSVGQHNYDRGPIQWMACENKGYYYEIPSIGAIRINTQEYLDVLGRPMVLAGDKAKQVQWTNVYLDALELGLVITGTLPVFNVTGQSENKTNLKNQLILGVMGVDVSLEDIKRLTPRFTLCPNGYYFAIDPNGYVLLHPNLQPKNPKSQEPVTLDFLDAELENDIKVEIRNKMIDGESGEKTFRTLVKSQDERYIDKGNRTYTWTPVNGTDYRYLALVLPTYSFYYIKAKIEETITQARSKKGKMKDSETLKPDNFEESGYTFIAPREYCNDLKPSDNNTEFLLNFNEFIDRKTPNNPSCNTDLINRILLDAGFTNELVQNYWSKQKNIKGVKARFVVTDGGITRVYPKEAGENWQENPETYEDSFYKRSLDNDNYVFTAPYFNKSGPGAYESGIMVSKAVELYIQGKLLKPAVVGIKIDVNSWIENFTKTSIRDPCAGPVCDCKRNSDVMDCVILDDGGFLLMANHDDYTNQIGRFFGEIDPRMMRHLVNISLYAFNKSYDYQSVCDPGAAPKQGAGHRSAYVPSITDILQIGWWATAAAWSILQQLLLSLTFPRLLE
T1 sequence (P54290 945-1091 partner limits assumed): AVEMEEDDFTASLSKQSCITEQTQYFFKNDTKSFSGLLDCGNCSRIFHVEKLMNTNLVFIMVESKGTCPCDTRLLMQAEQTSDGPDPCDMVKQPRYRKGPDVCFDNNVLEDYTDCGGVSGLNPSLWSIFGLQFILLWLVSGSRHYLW
T1 sequence (P54283 whole entry partner): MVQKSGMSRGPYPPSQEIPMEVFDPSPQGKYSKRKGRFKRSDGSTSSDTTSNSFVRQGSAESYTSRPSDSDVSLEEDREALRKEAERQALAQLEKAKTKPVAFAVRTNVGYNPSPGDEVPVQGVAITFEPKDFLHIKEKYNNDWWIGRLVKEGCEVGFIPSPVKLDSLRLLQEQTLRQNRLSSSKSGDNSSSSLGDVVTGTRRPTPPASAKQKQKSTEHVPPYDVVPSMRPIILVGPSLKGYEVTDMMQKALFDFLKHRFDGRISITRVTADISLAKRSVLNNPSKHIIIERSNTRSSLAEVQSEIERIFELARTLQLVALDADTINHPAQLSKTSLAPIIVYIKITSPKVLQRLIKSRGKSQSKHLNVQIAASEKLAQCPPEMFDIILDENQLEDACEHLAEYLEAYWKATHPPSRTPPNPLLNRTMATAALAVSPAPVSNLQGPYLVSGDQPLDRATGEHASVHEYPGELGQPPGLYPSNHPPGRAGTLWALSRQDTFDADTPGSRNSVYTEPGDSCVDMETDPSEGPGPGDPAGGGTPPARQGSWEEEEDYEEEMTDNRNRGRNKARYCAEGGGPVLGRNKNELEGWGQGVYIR

The IC50 is the concentration needed to halve the response being measured. As to `CN(CC(=O)N1CCN(C(c2ccccc2)c2ccc(Cl)cc2)CC1)C(c1ccccc1)c1ccccc1` (stereo not shown) [Compound 3, 2-benzhydryl(methyl)amino-1-(4-((4-chlorophenyl)(phenyl)methyl)piperazin-1-yl)ethanone], the half-maximal inhibitory concentration (IC50) runs as follows: under setting [1], 2450 nM; under setting [2], 850 nM.
`CN(CC(=O)N1CCN(C(c2ccccc2)c2cccc(Cl)c2)CC1)C(c1ccccc1)c1ccccc1` (stereo not shown) [Compound 4, 2-benzhydryl(methyl)amino-1-(4-((3-chlorophenyl)(phenyl)methyl)piperazin-1-yl)ethanone]: the IC50 reads like this: under setting [1], 1240 nM; under setting [2], 840 nM.
Regarding `CN(CC(=O)N1CCN(C(c2ccccc2)c2ccccc2Cl)CC1)C(c1ccccc1)c1ccccc1` (stereo not shown) [Compound 5, 2-benzhydryl(methyl)amino-1-(4-((2-chlorophenyl)(phenyl)methyl)piperazin-1-yl)ethanone], the IC50 runs as follows: under setting [1], greater than 4670 nM; under setting [2], greater than 2940 nM.
Taken in the same sequence, the figures for `CN(CC(=O)N1CCN(C(c2ccccc2)c2cccc(C(F)(F)F)c2)CC1)C(c1ccccc1)c1ccccc1` (stereo not shown) [Compound 7] were 1460 nM and 670 nM.
For the molecule `CN1CCC(CN2CCN(C(=O)CNC(c3ccccc3)c3ccccc3)CC2)CC1` [Compound 9], the half-inhibitory concentration (IC50) is 4000 nM under setting [1] and 2500 nM under setting [2].
Turning to `CN1CCC(C(=O)N2CCN(C(=O)CNC(c3ccccc3)c3ccccc3)CC2)CC1` [Compound 10, 2-benzhydrylamino-1-(4-(1-methylpiperidine-4-carbonyl)piperazin-1-yl)ethanone], the IC50 reads like this: under setting [1], greater than 4970 nM; under setting [2], greater than 2640 nM.
Taken in the same sequence, the figures for `CN1CCC(C(=O)N2CCN(C(=O)CN(C)C(c3ccccc3)c3ccccc3)CC2)CC1` [Compound 11, 2-benzhydryl(methyl)amino-1-(4-(1-methylpiperidine-4-carbonyl)piperazin-1-yl)ethanone] were greater than 11800 nM and 7920 nM.
As to `CN1CCC(CN2CCN(C(=O)CN(C)C(c3ccccc3)c3ccccc3)CC2)CC1` [Compound 12], the IC50 reads like this: under setting [1], 7400 nM; under setting [2], 2070 nM.
The like results for `CN1CCC(C(c2ccccc2)N2CCN(C(=O)CN(C)C(c3ccccc3)c3ccccc3)CC2)CC1` (stereo not shown) [Compound 14, 2-benzhydryl(methyl)amino-1-(4-((1-methylpiperidin-4-yl)(phenyl)methyl)piperazin-1-yl)ethanone] were, in that order, 550 nM and 440 nM.
The like results for `O=C(CNc1ccccc1)N1CCN(C(c2ccccc2)c2ccccc2)CC1` [Compound 16] were, in that order, 4300 nM and 800 nM.
Regarding `O=C(CNc1ccc(Cl)cc1)N1CCN(C(c2ccccc2)c2ccccc2)CC1` [Compound 17, 1-(4-benzhydrylpiperazin-1-yl)-2-(4-chlorophenylamino)ethanone], the IC50 under setting [1] is greater than 7600 nM and the concentration for half-maximal inhibition (IC50) under setting [2] was greater than 4600 nM.
In the case of `O=C(CNc1cccc(Cl)c1)N1CCN(C(c2ccccc2)c2ccccc2)CC1` [Compound 18, 1-(4-benzhydrylpiperazin-1-yl)-2-(3-chlorophenylamino)ethanone], the IC50 was found to be 1290 nM under setting [1] and 1030 nM under setting [2].
Taken in the same sequence, the figures for `O=C(CNc1cc(F)cc(F)c1)N1CCN(C(c2ccccc2)c2ccccc2)CC1` [Compound 21, 1-(4-benzhydrylpiperazin-1-yl)-2-(3,5-difluorophenylamino)ethanone] were 1400 nM and 700 nM.
Regarding `O=C(CNc1cc(Cl)cc(Cl)c1)N1CCN(C(c2ccccc2)c2ccccc2)CC1` [Compound 22, 1-(4-benzhydrylpiperazin-1-yl)-2-(3,5-dichlorophenylamino)ethanone], the IC50 under setting [1] amounted to 2400 nM and the IC50 under setting [2] came to 980 nM.
Taken in the same sequence, the figures for `COc1cc(NCC(=O)N2CCN(C(c3ccccc3)c3ccccc3)CC2)cc(OC)c1OC` [Compound 25, 1-(4-benzhydrylpiperazin-1-yl)-2-(3,4,5-trimethoxyphenylamino) ethanone] were 2300 nM and 1500 nM.
The like results for `CC1CN(CC2CCOCC2)CC(C)N1C(=O)COC(c1ccccc1)c1ccccc1` (stereo not shown) [Compound 32, 2-(benzhydryloxy)-1-(2,6-dimethyl-4-((tetrahydro-2H-pyran-4-yl)methyl)piperazin-1-yl)ethanone] were, in that order, 1000 nM and 640 nM.
In the case of `CC1CN(CC2CCOCC2)CC(C)N1C(=O)C[S+]([O-])C(c1ccccc1)c1ccccc1` (stereo not shown) [Compound 34, 2-(benzhydrylsulfinyl)-1-(2,6-dimethyl-4-((tetrahydro-2H-pyran-4-yl)methyl)piperazin-1-yl)ethanone], the IC50 is greater than 6600 nM under setting [1] and greater than 4700 nM under setting [2].
On to `O=C(COC(c1ccccc1)c1ccccc1)N1CCN(CC2CCOCC2)CC1` [Compound 35, 2-(benzhydryloxy)-1-(4-((tetrahydro-2H-pyran-4-yl)methyl)piperazin-1-yl)ethanone], for which the IC50 is 8300 nM under setting [1] and 1300 nM under setting [2].
As to `O=C(CNC(c1ccccc1)c1ccccc1)N1CCN(CC2CCOCC2)CC1` [Compound 38, 2-(benzhydrylamino)-1-(4-((tetrahydro-2H-pyran-4-yl)methyl)piperazin-1-yl)ethanone], the IC50 runs as follows: under setting [1], 9530 nM; under setting [2], 4910 nM.
Take `Cc1cc(CN2CCN(C(=O)COC(c3ccccc3)c3ccccc3)CC2)cc(Cl)n1` [Compound 40, 2-(benzhydryloxy)-1-(4-((2-chloro-6-methylpyridin-4-yl)methyl)piperazin-1-yl)ethanone]: the IC50 runs as follows: under setting [1], 1200 nM; under setting [2], 740 nM.
For `CN1CCC(CN2CCN(C(=O)COC(c3ccccc3)c3ccccc3)CC2)CC1` [Compound 41, 2-(benzhydryloxy)-1-(4-((1-methylpiperidin-4-yl)methyl)piperazin-1-yl)ethanone], the IC50 is, setting by setting: under setting [1], greater than 4800 nM; under setting [2], greater than 3200 nM.
On to `CN1CCC(CN2CCN(C(=O)C[S+]([O-])C(c3ccccc3)c3ccccc3)CC2)CC1` (stereo not shown) [Compound 43, 2-(benzhydrylsulfinyl)-1-(4-((1-methylpiperidin-4-yl)methyl)piperazin-1-yl)ethanone], for which the IC50 is, setting by setting: under setting [1], 4260 nM; under setting [2], 1340 nM.
Take `O=C(CSC(c1ccccc1)c1ccccc1)N1CCN(C(c2ccccc2)c2ccccc2)CC1` [Compound 44, 1-(4-benzhydrylpiperazin-1-yl)-2-(benzhydrylthio)ethanone]: the 50% inhibitory concentration (IC50) runs as follows: under setting [1], 600 nM; under setting [2], 270 nM.
For `O=C(C[S+]([O-])C(c1ccccc1)c1ccccc1)N1CCN(C(c2ccccc2)c2ccccc2)CC1` (stereo not shown) [Compound 45, 1-(4-benzhydrylpiperazin-1-yl)-2-(benzhydrylsulfinyl)ethanone], the IC50 under setting [1] turned out to be 290 nM and the IC50 under setting [2] stood at 200 nM.
For the molecule `O=C(CSC(c1ccccc1)c1ccccc1)N1CCN(C(c2ccc(F)cc2)c2ccc(F)cc2)CC1` [Compound 47, 2-(benzhydrylthio)-1-(4-(bis(4-fluorophenyl)methyl)piperazin-1-yl)ethanone], the IC50 reads like this: under setting [1], 4920 nM; under setting [2], 3230 nM.
Taken in the same sequence, the figures for `O=C(COC(c1ccccc1)c1ccccc1)N1CCN(C(c2ccccc2)c2ccccc2)C(CO)C1` (stereo not shown) [Compound 50, 2-(benzhydryloxy)-1-(4-benzhydryl-3-hydroxymethylpiperazin-1-yl)ethanone] were 400 nM and 230 nM.
Regarding `O=C(C[S+]([O-])C(c1ccccc1)c1ccccc1)N1CCN(C(c2ccccc2)c2ccccc2)C(CO)C1` (stereo not shown) [Compound 52, 1-(4-benzhydryl-3-hydroxymethylpiperazin-1-yl)-2-(benzhydrylsulfinyl)ethanone], the IC50 by setting is: under setting [1], 1230 nM; under setting [2], 970 nM.
Regarding `COCC1CN(C(=O)COC(c2ccccc2)c2ccccc2)CCN1C(c1ccccc1)c1ccccc1` (stereo not shown) [Compound 54, 2-(benzhydryloxy)-1-(4-benzhydryl-3-methoxymethylpiperazin-1-yl)ethanone], the IC50 is, setting by setting: under setting [1], 330 nM; under setting [2], 210 nM.
As to `COCC1CN(C(=O)C[S+]([O-])C(c2ccccc2)c2ccccc2)CCN1C(c1ccccc1)c1ccccc1` (stereo not shown) [Compound 56, 1-(4-benzhydryl-3-methoxymethylpiperazin-1-yl)-2-(benzhydrylsulfinyl)ethanone], the IC50 under setting [1] is 180 nM and the IC50 under setting [2] was 130 nM.
